Consider 19 compounds from patent US7488811B2, “Macrolide compounds endowed with antiinflammatory activity” (Zambon Group S.p.A., priority 2002, dated 2009).

The subject of test [1] is PMA-induced oedema in mouse ear. Put plainly: Acute contact dermatitis: TPA (PMA)-induced ear oedema in mice. Conditions: CD1 mice, 500 μg/ear topical in TPDS 30 min before TPA 0.01%, 6 h. The format is in vivo. As to the method:
Groups of 5-6 CD1 mice (18-24 g) were used. • Administration of the compounds
All the macrolide compounds were dissolved in Trans-phase Delivery System (TPDS), a vehicle formed by 10% benzyl alcohol, 40% acetone and 50% isopropanol.
15 microlitres of the compounds (500 μg), dissolved in TPDS, were applied topically to the inner surface of an ear; 30 minutes later, 12 microlitres of a solution of tetradecanoylphorbol acetate (TPA) at a concentration of 0.01% dissolved in acetone were applied to the same area.
Six hours later, the animals were sacrificed by inhalation of CO2. • Evaluation of the results
Two methods were used to evaluate the auricular oedema: • a) Weight of a given portion of auricular pinna. • b) Measurement of the auricular thickness using precision spring callipers.
The degree of oedema was calculated by subtracting the weight or the thickness of the untreated ear from that of the contralateral treated ear. To determine the degree of remission of the oedema, the difference (weight or thickness) of the groups treated with TPA+macrolides was then compared with the groups treated with TPA alone.
The activity of the macrolide compounds was measured by using the modified method of Zunic et al. (1998): MDL (Lysyl) GDP, a non-toxic muramyl dipeptide derivative inhibits cytokine production by activated macrophages and protects mice from phorbol ester- and oxazolone-induced inflammation (J. Invest. Dermatol., 111(1), 77-82).
The data relating to erythromycin and azythromycin concern the treatment with a single dose of 500 μg/ear.

For test [2], the system named is Staphylococcus aureus ATCC 29213. Briefly: Antibiotic activity, MIC in liquid medium. The class given is cell-based. Conditions: ATCC29213, Staph. aureus ATCC 29213. The procedure:
(§1) The MIC values were determined in liquid earth according to the method described in “Manual of Clinical Microbiology, 7th edition (1999), American Society for Microbiology”.

Test [3] concerns Streptococcus pneumoniae ATCC 49619. Briefly: Antibiotic activity, MIC in liquid medium. The following applies: ATCC49619, Strep. pneum ATTC 49619. The class given is cell-based. As to the method: as §1
The subject of test [4] is Enterococcus faecalis ATCC 29212. Briefly: Antibiotic activity, MIC or activity at 128 μg/ml. The class given is cell-based. The following applies: Enter. faecalis ATCC 29212; for MIC: Enterococcus faecalis, ATCC29212. The procedure:
as §1

The subject of test [5] is Staphylococcus aureus ATCC 6538. Briefly: Antibiotic activity at 128 μg/ml. The class given is cell-based. Conditions: Staph. aureus ATCC 6538; 128 μg/ml. As to the method:
as §1

For test [6], the system named is Streptococcus pyogenes ATCC 19615. Briefly: Antibiotic activity at 128 μg/ml. The class given is cell-based. The following applies: Strep. pyogenes ATTC 19615; 128 μg/ml. The procedure: as §1
Where [7] appears, read: method a: weight of a given portion of auricular pinna.
The mark [8] stands for this setting: method b: auricular thickness by precision spring callipers.

As a reminder, the inhibition in vivo is the relative decrease from the control value, in per cent. Turning to `CC[C@H]1OC(=O)[C@H](C)[C@@H](O[C@H]2C[C@@](C)(OC)[C@@H](O)[C@H](C)O2)[C@H](C)[C@@H](O[C@@H]2O[C@H](C)C[C@H](N(C)C)[C@H]2O)[C@](C)(O)C[C@@H](C)CN(C)[C@H](C)[C@@H](O)[C@]1(C)O` [Azythromycin, reference compound], the inhibition in vivo at 500 µg/ear in test [1] (setting [7]) was found to be 40%.

What is called MIC is the smallest concentration in the dilution series that meets the test's criterion for growth inhibition. A lower MIC goes with greater potency. Turning to `CC[C@H]1OC(=O)[C@H](C)[C@@H](O)[C@H](C)[C@@H](O[C@@H]2O[C@H](C)C[C@H](N(C)C)[C@H]2O)C(C)(O)C[C@@H](C)[C@H](O)[C@H](C)[C@@H](O)[C@]1(C)O` (some centres unmarked) [Compound 2], the inhibition in vivo at 500 µg/ear in test [1] (setting [7]) turned out to be 36.2%. Besides, the MIC in test [2], in test [3] and in test [4] was over 128 µg/mL each time. Besides, the “Antibiotic activity at 128 μg/ml” value in test [4], in test [5] and in test [6] was “not active” throughout.

As for `CC[C@H]1OC(=O)[C@H](C)[C@@H](O)[C@H](C)[C@@H](O[C@@H]2O[C@H](C)C[C@H]([N+](C)(C)[O-])[C@H]2O)C(C)(O)C[C@@H](C)[C@H](O)[C@H](C)[C@@H](O)[C@]1(C)O` (some centres unmarked) [Compound 3], in test [1] (setting [7]), the inhibition in vivo at 500 µg/ear worked out at 65.2%. Moreover, the MIC in test [2], in test [3] and in test [4] was over 128 µg/mL in each case. For the same compound, the “Antibiotic activity at 128 μg/ml” value in test [4], in test [5] and in test [6] was “not active” in each case.

Compound `CC[C@H]1OC(=O)[C@H](C)[C@@H](O)[C@H](C)[C@@H](O[C@@H]2O[C@H](C)CC(N(C)CCCNCc3nccs3)[C@H]2O)C(C)(O)C[C@@H](C)[C@H](O)[C@H](C)[C@@H](O)[C@]1(C)O` (some centres unmarked) [Compound 5] gave an inhibition in vivo at 500 µg/ear in test [1] (setting [7]) of 53.4%.

Regarding `CC[C@H]1OC(=O)[C@H](C)[C@@H](O)[C@H](C)[C@@H](O[C@@H]2O[C@H](C)CC(N(C)C(=O)CNCCN(C)C)[C@H]2O)C(C)(O)C[C@@H](C)[C@H](O)[C@H](C)[C@@H](O)[C@]1(C)O` (some centres unmarked) [Compound 6], the inhibition in vivo at 500 µg/ear in test [1] (setting [7]) was determined as 30.9%.

In test [1] (setting [7]), `CC[C@H]1OC(=O)[C@H](C)[C@@H](O)[C@H](C)[C@@H](O[C@@H]2O[C@H](C)C[C@H](N(C)CCNCCNCc3nccs3)[C@H]2O)[C@@](C)(O)C[C@@H](C)[C@H](O)[C@H](C)[C@@H](O)[C@]1(C)O` [Compound 7] showed an inhibition in vivo at 500 µg/ear of 45%.

The compound `CC[C@H]1OC(=O)[C@H](C)[C@@H](O)[C@H](C)[C@@H](O[C@@H]2O[C@H](C)C=C[C@H]2O)C(C)(O)C[C@@H](C)[C@H](O)[C@H](C)[C@@H](O)[C@]1(C)O` (some centres unmarked) [Compound 9] displayed an inhibition in vivo at 500 µg/ear in test [1] (setting [7]) of 32.4%.

In turn, `CC[C@H]1OC(=O)[C@H](C)[C@@H](O)[C@H](C)[C@@H](O[C@@H]2O[C@H](C)C[C@H](N(C)C)[C@H]2O)C(C)(O)C[C@@H](C)/C(=N\O)[C@H](C)[C@@H](O)[C@]1(C)O` (some centres unmarked) [Compound 11] came in with an inhibition in vivo at 500 µg/ear in test [1] (setting [7]) of 70.2%. Further, the minimal inhibitory concentration (MIC) in test [2], in test [3] and in test [4] was over 128 µg/mL each time. Moreover, the “Antibiotic activity at 128 μg/ml” value in test [4], in test [5] and in test [6] was “not active” each time.

Compound `CC[C@H]1OC(=O)[C@H](C)[C@@H](O)[C@H](C)[C@@H](O[C@@H]2O[C@H](C)C[C@H]([N+](C)(C)[O-])[C@H]2O)C(C)(O)C[C@@H](C)/C(=N\O)[C@H](C)[C@@H](O)[C@]1(C)O` (some centres unmarked) [Compound 12] displayed an inhibition in vivo at 500 µg/ear in test [1] (setting [7]) of 87.4%. Also, the MIC in test [2], in test [3] and in test [4] was over 128 µg/mL in each case. The “Antibiotic activity at 128 μg/ml” value in test [4], in test [5] and in test [6] was “not active” each time.

For the compound `CC[C@H]1OC(=O)[C@H](C)[C@@H](O)[C@H](C)[C@@H](O[C@@H]2O[C@H](C)C=C[C@H]2O)C(C)(O)C[C@@H](C)/C(=N\O)[C@H](C)[C@@H](O)[C@]1(C)O` (some centres unmarked) [Compound 13], in test [1] (setting [7]), the inhibition in vivo at 500 µg/ear was 77.4%. The MIC in test [2], in test [3] and in test [4] was over 128 µg/mL in each case. Also, the “Antibiotic activity at 128 μg/ml” value in test [4], in test [5] and in test [6] was “not active” each time.

Regarding `CC[C@H]1OC(=O)[C@H](C)[C@@H](O)[C@H](C)[C@@H](O[C@@H]2O[C@H](C)C[C@H](N(C)C)[C@H]2O)C(C)(O)C[C@@H](C)/C(=N\OC)[C@H](C)[C@@H](O)[C@]1(C)O` (some centres unmarked) [Compound 15], in test [1] (setting [7]), the inhibition in vivo at 500 µg/ear was found to be 31.6%. The “Antibiotic activity at 128 μg/ml” value in test [4], in test [5] and in test [6] was “not active” in each case.

Consider `CC[C@H]1OC(=O)[C@H](C)[C@@H](O)[C@H](C)[C@@H](O[C@@H]2O[C@H](C)C[C@H]([N+](C)(C)[O-])[C@H]2O)C(C)(O)C[C@@H](C)/C(=N\OC)[C@H](C)[C@@H](O)[C@]1(C)O` (some centres unmarked) [Compound 16], for which, in test [1] (setting [7]), the inhibition in vivo at 500 µg/ear was 72.3%.

Consider `CC[C@H]1OC(=O)[C@H](C)[C@@H](O)[C@H](C)[C@@H](O[C@@H]2O[C@H](C)C=C[C@H]2O)C(C)(O)C[C@@H](C)/C(=N\OC)[C@H](C)[C@@H](O)[C@]1(C)O` (some centres unmarked) [Compound 17], for which the inhibition in vivo at 500 µg/ear in test [1] (setting [7]) was 41.9%.

`CC[C@H]1OC(=O)[C@H](C)[C@@H](O)[C@H](C)[C@H](O[C@@H]2O[C@H](C)CC([N+](C)(C)[O-])[C@@H]2O)[C@](C)(O)C[C@@H](C)/C(=N\OCCNCCNCc2nccs2)[C@H](C)[C@H](O)[C@]1(C)O` (some centres unmarked) [Compound 20] had an inhibition in vivo at 500 µg/ear in test [1] (setting [8]) of 49.9%. Further, the MIC in test [2], in test [3] and in test [4] was over 128 µg/mL each time.

The compound `CC[C@H]1OC(=O)[C@H](C)[C@@H](O)[C@H](C)[C@H](O[C@@H]2O[C@H](C)CC[C@@H]2O)[C@](C)(O)C[C@@H](C)/C(=N\OCCNCCNCc2nccs2)[C@H](C)[C@H](O)[C@]1(C)O` [Compound 21] displayed an inhibition in vivo at 500 µg/ear in test [1] (setting [8]) of 74.1%. Moreover, the minimal inhibitory concentration (MIC) in test [2], in test [3] and in test [4] was over 128 µg/mL each time. Further, the “Antibiotic activity at 128 μg/ml” value in test [4], in test [5] and in test [6] was “not active” in each case.

Turning to `CC[C@H]1OC(=O)[C@H](C)[C@@H](O)[C@H](C)[C@@H](O[C@@H]2O[C@H](C)CC[C@H]2O)C(C)(O)C[C@@H](C)/C(=N\OCCNCCNCc2ccco2)[C@H](C)[C@@H](O)[C@]1(C)O` (some centres unmarked) [Compound 26], the “Antibiotic activity at 128 μg/ml” value in test [4], in test [5] and in test [6] was “not active” in each case.

For `CC[C@H]1OC(=O)[C@H](C)[C@@H](O)[C@H](C)[C@@H](O[C@@H]2O[C@H](C)C[C@H](N(C)C)[C@H]2O)C(C)(OC)C[C@@H](C)[C@H](O)[C@H](C)[C@@H](O)[C@]1(C)O` (some centres unmarked) [Compound 27], the MIC in test [2], in test [3] and in test [4] was over 128 µg/mL throughout.

In test [1] (setting [7]), `CC[C@H]1OC(=O)[C@H](C)[C@@H](O)[C@H](C)[C@H](OC2O[C@H](C)C[C@H](N(C)C(C)=O)[C@@H]2O)C(C)(OC)C[C@H](C)/C(=N\O)[C@H](C)[C@@H](O)[C@]1(C)O` (some centres unmarked) [Compound 29] yielded an inhibition in vivo at 500 µg/ear of 44.5%.

In turn, `CC[C@H]1OC(=O)[C@H](C)[C@@H](O)[C@H](C)[C@H](OC2O[C@H](C)C[C@H](N(C)CCCOCc3cccnc3)[C@@H]2O)C(C)(O)C[C@H](C)[C@H](O)[C@H](C)[C@@H](O)[C@]1(C)O` (some centres unmarked) [Compound 30] registered an inhibition in vivo at 500 µg/ear in test [1] (setting [7]) of 39.8%.
